Literature values as cited in article PMC9851200, “Multiparameter phenotypic screening for endogenous TFEB and TFE3 translocation identifies novel chemical series modulating lysosome function” (Autophagy, 2022).

Tests used:
Parameters in all cases: method as in original PKIS2 published data
[1] = target: T1, kinases (KINOMEscan panel) (Homo sapiens, UniProt Q09013); details: kinase DMPK; Published KINOMEscan; ref original PKIS2 published data; cited from earlier work
T1 sequence (Q09013 1-629): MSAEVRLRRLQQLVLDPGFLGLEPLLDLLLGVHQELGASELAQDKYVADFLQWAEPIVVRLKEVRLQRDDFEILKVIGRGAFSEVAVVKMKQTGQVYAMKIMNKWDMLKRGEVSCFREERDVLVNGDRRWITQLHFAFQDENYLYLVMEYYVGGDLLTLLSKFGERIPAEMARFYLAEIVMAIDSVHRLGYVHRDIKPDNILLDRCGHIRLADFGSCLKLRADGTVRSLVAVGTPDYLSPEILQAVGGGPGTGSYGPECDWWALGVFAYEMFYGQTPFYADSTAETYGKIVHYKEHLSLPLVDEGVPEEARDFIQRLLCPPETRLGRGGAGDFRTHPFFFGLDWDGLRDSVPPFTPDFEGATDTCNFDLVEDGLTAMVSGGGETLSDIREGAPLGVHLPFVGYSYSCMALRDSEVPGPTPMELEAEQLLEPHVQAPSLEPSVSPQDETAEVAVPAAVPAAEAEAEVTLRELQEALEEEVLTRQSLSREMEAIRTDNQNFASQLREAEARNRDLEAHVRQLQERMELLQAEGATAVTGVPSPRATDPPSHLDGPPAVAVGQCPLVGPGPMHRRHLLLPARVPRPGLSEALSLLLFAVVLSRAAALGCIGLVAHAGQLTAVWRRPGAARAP

[2] = target: kinases (KINOMEscan panel) (Homo sapiens, UniProt P24723); details: kinase PRKCH; Published KINOMEscan; ref original PKIS2 published data; cited from earlier work
[3] = target: kinases (KINOMEscan panel) (Homo sapiens, UniProt P09769); details: FGR; Published KINOMEscan; ref original PKIS2 published data; cited from earlier work
[4] = target: kinases (KINOMEscan panel) (Homo sapiens, UniProt Q9P286); details: kinase PAK5; Published KINOMEscan; ref original PKIS2 published data; cited from earlier work
[5] = target: kinases (KINOMEscan panel) (Homo sapiens, UniProt Q04912); details: MST1R; Published KINOMEscan; ref original PKIS2 published data; cited from earlier work
[6] = target: kinases (KINOMEscan panel) (Homo sapiens, UniProt P07948); details: Published KINOMEscan; ref original PKIS2 published data; cited from earlier work
[7] = target: T2, kinases (KINOMEscan panel) (Homo sapiens, UniProt P29323); details: EPHB2; Published KINOMEscan; ref original PKIS2 published data; cited from earlier work
T2 sequence (P29323 19-1055): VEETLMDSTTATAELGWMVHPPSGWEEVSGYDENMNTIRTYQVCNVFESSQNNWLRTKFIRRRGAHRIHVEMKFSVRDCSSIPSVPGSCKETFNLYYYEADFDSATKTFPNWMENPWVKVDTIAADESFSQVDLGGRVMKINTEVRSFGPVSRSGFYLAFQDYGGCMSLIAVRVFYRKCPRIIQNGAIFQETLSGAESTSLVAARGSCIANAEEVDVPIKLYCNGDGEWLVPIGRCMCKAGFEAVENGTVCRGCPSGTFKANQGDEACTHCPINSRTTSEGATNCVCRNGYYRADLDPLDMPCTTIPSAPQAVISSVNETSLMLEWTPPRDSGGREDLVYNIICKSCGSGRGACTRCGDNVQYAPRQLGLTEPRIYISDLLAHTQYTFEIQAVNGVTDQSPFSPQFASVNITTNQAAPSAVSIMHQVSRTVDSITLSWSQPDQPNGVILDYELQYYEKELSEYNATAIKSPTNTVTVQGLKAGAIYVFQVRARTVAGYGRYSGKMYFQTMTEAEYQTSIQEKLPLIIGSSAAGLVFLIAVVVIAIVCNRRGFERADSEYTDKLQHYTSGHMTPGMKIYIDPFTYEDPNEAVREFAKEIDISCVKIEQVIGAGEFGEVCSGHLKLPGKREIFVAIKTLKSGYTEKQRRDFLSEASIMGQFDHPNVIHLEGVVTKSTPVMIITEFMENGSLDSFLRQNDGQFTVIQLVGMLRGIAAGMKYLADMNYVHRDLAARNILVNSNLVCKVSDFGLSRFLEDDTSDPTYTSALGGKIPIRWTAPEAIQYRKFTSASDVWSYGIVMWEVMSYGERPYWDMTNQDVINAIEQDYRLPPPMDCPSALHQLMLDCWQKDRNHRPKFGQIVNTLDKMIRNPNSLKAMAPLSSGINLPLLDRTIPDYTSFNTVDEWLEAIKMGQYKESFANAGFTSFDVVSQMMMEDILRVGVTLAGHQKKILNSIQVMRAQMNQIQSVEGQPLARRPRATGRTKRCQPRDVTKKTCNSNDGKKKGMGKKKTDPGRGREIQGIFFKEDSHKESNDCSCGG

[8] = target: kinases (KINOMEscan panel) (Homo sapiens, UniProt P27037); details: ACVR2A; Published KINOMEscan; ref original PKIS2 published data; cited from earlier work
[9] = target: kinases (KINOMEscan panel) (Homo sapiens, UniProt Q9UPE1); details: SRPK3; Published KINOMEscan; ref original PKIS2 published data; cited from earlier work
[10] = target: kinases (KINOMEscan panel) (Homo sapiens, UniProt Q9UQM7); details: kinase CAMK2A; Published KINOMEscan; ref original PKIS2 published data; cited from earlier work
Chain of kinases (KINOMEscan panel) (Homo sapiens, UniProt Q9UQM7) (Q9UQM7 whole entry): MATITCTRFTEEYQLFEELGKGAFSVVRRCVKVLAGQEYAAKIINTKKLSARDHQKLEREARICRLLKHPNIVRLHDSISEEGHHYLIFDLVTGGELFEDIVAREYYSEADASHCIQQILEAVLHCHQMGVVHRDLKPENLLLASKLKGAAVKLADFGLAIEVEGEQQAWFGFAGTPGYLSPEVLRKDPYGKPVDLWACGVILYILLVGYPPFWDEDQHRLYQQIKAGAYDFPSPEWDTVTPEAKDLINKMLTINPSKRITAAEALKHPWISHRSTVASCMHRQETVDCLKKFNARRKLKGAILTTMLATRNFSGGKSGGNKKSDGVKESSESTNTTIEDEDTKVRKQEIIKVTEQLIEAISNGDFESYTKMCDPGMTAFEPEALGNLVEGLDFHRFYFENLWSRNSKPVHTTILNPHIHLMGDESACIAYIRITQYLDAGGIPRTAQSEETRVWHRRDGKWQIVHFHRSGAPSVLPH

Chain of kinases (KINOMEscan panel) (Homo sapiens, UniProt P09769) (P09769 whole entry): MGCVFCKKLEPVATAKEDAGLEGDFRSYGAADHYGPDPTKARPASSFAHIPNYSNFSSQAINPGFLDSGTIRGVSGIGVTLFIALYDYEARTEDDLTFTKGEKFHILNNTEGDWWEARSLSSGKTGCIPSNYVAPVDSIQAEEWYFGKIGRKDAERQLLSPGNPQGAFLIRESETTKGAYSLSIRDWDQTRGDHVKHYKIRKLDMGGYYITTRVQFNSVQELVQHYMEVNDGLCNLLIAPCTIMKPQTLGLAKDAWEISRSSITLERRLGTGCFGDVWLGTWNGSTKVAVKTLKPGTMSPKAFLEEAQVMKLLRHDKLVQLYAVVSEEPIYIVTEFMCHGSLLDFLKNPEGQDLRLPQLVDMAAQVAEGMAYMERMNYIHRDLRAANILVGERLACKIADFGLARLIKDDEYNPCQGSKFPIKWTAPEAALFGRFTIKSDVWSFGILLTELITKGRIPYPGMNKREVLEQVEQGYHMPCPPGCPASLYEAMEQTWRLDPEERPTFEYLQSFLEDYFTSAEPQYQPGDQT
Chain of kinases (KINOMEscan panel) (Homo sapiens, UniProt P07948) (P07948 whole entry): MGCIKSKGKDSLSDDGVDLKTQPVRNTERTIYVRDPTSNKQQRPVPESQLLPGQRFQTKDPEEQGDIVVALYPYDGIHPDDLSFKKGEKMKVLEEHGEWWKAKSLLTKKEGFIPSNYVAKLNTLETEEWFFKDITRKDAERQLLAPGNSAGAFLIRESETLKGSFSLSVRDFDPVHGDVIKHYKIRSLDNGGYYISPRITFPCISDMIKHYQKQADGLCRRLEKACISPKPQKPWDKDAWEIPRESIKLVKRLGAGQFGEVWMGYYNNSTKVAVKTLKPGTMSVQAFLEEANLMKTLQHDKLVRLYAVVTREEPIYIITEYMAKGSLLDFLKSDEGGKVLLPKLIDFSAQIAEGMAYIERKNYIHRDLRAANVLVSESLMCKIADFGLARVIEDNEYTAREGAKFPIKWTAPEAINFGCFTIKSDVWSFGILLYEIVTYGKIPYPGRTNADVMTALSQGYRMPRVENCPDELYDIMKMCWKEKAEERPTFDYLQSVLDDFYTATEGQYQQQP
Chain of kinases (KINOMEscan panel) (Homo sapiens, UniProt Q9P286) (Q9P286 whole entry): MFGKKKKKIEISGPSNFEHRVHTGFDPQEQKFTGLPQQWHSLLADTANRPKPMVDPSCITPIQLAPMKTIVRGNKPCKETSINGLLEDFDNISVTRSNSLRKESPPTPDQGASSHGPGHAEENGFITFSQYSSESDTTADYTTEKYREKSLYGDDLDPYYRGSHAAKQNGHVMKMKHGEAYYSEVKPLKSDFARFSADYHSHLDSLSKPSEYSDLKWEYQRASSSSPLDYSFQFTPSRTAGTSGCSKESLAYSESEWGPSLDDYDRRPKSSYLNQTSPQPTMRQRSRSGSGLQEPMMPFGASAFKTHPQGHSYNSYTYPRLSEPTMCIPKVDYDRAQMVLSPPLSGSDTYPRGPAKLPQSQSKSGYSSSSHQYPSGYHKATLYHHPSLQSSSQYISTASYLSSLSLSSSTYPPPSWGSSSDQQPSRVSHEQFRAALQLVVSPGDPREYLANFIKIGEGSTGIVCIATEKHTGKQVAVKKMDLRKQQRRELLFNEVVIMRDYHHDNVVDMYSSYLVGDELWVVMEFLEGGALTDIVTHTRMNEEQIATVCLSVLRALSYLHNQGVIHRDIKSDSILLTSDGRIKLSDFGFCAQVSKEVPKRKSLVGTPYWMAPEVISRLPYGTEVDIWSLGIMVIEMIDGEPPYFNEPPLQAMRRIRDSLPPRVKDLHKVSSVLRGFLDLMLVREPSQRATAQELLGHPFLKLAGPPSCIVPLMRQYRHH
Chain of kinases (KINOMEscan panel) (Homo sapiens, UniProt Q9UPE1) (Q9UPE1 whole entry): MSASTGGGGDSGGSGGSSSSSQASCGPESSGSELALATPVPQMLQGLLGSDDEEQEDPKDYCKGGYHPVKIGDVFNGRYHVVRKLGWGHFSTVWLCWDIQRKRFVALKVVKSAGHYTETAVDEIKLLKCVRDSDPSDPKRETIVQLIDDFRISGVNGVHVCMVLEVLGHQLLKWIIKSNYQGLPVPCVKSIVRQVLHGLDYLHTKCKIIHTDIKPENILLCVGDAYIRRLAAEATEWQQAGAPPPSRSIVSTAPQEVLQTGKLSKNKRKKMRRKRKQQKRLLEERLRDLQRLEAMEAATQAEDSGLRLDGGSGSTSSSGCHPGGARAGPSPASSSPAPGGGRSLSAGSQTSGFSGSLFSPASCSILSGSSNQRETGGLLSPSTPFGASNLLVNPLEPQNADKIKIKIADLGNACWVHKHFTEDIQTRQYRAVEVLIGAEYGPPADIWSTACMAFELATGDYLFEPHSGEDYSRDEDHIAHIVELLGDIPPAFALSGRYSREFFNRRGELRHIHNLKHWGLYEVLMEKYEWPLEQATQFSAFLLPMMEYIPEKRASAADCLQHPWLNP
Chain of kinases (KINOMEscan panel) (Homo sapiens, UniProt P27037) (P27037 20-513): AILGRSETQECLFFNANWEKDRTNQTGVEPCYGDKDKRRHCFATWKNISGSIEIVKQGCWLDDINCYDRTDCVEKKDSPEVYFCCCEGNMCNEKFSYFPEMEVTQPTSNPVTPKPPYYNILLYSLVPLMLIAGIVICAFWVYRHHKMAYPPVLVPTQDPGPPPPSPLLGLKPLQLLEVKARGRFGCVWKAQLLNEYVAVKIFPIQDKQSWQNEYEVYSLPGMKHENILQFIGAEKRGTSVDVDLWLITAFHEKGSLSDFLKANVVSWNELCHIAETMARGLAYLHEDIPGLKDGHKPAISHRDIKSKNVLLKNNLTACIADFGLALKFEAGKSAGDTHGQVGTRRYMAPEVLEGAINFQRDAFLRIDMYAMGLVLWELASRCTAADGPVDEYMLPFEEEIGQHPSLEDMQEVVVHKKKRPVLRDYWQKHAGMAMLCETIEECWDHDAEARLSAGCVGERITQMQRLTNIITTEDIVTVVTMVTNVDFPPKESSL
Chain of kinases (KINOMEscan panel) (Homo sapiens, UniProt Q04912) (Q04912 25-1400): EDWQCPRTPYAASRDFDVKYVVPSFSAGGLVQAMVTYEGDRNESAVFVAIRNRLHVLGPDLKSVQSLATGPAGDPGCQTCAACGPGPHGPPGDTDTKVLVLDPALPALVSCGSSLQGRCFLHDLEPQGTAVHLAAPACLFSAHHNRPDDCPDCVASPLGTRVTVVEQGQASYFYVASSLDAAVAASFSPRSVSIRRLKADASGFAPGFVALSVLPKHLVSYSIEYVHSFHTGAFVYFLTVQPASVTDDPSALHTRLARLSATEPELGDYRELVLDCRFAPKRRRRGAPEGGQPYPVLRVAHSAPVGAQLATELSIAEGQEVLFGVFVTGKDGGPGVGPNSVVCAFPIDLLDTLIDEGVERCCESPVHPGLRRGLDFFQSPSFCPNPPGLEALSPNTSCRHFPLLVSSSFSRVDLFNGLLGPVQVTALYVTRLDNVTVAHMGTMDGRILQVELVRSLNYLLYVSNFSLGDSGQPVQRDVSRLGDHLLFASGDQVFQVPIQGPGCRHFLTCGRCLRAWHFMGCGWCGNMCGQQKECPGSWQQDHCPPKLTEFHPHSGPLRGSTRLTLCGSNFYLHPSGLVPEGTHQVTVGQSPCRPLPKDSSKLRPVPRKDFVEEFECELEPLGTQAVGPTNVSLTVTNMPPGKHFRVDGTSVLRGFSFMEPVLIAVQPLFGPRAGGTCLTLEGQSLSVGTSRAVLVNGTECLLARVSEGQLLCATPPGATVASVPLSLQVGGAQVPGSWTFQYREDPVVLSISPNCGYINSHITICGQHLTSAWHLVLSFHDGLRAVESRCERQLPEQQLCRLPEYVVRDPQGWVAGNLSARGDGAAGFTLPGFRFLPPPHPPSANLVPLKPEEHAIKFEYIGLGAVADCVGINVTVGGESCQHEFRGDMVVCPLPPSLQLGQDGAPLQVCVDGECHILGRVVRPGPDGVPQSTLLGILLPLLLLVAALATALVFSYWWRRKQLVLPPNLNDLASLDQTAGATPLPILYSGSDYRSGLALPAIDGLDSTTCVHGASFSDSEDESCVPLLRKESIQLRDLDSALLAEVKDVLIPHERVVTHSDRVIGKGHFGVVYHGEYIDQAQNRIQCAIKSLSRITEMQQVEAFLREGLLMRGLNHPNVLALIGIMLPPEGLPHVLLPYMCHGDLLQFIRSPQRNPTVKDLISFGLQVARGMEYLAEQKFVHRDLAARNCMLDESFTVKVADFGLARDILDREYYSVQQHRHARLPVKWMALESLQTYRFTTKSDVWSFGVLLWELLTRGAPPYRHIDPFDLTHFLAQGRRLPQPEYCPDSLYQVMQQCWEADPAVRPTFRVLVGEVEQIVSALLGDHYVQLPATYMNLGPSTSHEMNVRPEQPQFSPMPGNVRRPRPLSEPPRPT

Cc1cccc(-c2nc(Nc3ccncc3)c3ccccc3n2)n1 [NK215]
KINOMEscan DMPK [1]: 2 | KINOMEscan PRKCH [2]: 0 | KINOMEscan FGR [3]: 31 | KINOMEscan PAK5 [4]: 0 | KINOMEscan MST1R [5]: 0 | KINOMEscan LYN [6]: 0 | KINOMEscan EPHB2 [7]: 16 | KINOMEscan ACVR2A [8]: 24 | KINOMEscan SRPK3 [9]: 15 | KINOMEscan CAMK2A [10]: 6
